Here are results for 15 compounds from paper PMC6766826, “Antiproliferative S-Trityl-L-Cysteine -Derived Compounds as SIRT2 Inhibitors: Repurposing and Solubility Enhancement” (Molecules, 2019).

The target in assay [1] is T1, SIRT2 (Homo sapiens, UniProt Q8IXJ6).
T1 sequence (Q8IXJ6 1-389): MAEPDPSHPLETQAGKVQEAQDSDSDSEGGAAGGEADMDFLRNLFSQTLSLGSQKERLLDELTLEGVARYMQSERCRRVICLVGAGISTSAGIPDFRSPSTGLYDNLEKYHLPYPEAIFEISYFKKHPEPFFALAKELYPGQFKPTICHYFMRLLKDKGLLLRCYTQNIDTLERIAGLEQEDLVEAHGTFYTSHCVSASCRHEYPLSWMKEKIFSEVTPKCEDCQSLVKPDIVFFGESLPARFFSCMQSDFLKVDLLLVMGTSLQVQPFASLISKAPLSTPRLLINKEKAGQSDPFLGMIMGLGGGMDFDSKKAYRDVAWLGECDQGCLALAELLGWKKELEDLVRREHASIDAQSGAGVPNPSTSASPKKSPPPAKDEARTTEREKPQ
Put plainly: In vitro SIRT2 deacetylase inhibition, electrophoretic mobility shift assay. In kind it is biochemical. The settings on record: for SIRT2 inhibition activity (in words): in vitro; for IC50: recombinant SIRT2, FAM-RHKK(Ac)LM peptide, 1 mM NAD, 60 min 37 °C, mean ± SD, read-out: IC50 against SIRT2. An excerpt:
The designs of the new STLC derivatives were based on TH-3 by conserving its trityl group, whereas the L-histidine moiety was replaced by L-cysteine. To obtain exhaustive structure–activity relationship (SAR) information, the amino group was reductively alkylated or acylated using different substituted aldehydes and acyl chlorides, respectively. The terminal methyl ester group was kept or converted to hydrazide (Figure 2). […] Two noncommercially available aldehydes, 4-(dimethylamino)picolinaldehyde and 4-(diethylamino)picolinaldehyde, were prepared as described previously. Thereafter, the in vitro SIRT2 inhibitory activities of these synthesized compounds were examined using electrophoretic mobility shift assays
Deacetylase activities of SIRT2 were measured with an electrophoretic mobility shift assay. […] After 60 min at 37 °C, the reaction was stopped by adding nicotinamide (final concentration 10 mM) in 50 μL stop buffer (100 mM HEPES (pH 7.5), 10 mM EDTA, 0.25% CR-3). The samples were analyzed using a LabChip EZ Reader II (PerkinElmer, Waltham, MA, USA). Percent conversion was defined as 100 × P / (P + S), where P and S are peak heights of the product and peptide substrate, respectively. The IC50 values were determined as means with standard deviation calculated from at least three independent dose–response curves using Origin software (OriginLab, Northampton, MA, USA).

In assay [2] the test system is K562. Briefly: MTT assay, K562 cells. In kind it is cell-based, human. Particulars: leukemic cells. An excerpt: (§1) Next, the three active compounds (STC4, STC9, and STC11) were utilized for a cell-based assay to explore their potential antiproliferative effect against different cancer cell lines, including MCF7 (breast cancer), HeLa (cervical cancer), and different genotypes of leukemic cells (K562, MT-2, and HL-60) using an MTT assay. […] In general, STC11 cellular activity was less than STC4 and STC9. This may be explained by the lower cellular permeability due to the presence of the more polar hydrazide group.
(§2) HeLa human cervical carcinoma cell lines were incubated in Dulbecco’s modified Eagle’s medium. MCF-7 human breast cancer, leukemic (K562, HL-60, MT-2, and Jurkat), and normal blood (PBMC) (Precision Bioservices, Frederic, MD, USA) cells were incubated in RPMI1640 medium. All media (Wako, Osaka, Japan) were supplemented with 10% fetal bovine serum (Sigma-Aldrich, St. Louis, MO, USA) and 89 μg/mL streptomycin (Meiji Seika, Tokyo, Japan) at 37 °C in a humidified atmosphere of 95% air and 5% CO2. Exponentially growing cells were cultured in 24-well and 96-well plates (Iwaki brand Asahi Glass, Tokyo, Japan) at 2 × 10^4 cells/mL and 1 × 10^6 cells/mL, respectively, for 96 h before the addition of drugs (optimum cell number for cytotoxicity assays was determined in preliminary experiments). Stock solutions of compounds in concentrations between 0.01–10 mM were prepared in dimethyl sulfoxide (DMSO; Wako, Osaka, Japan) and further dilution was made with fresh culture medium. The concentration of DMSO in the final culture medium was 1%, which had no effect on cell viability.
(§3) The level of cellular MTT (Dojindo, Kumamoto, Japan) reduction was quantified as described previously […] At the end of this period, cells were stained with MTT solution and incubated for an additional 4 h at 37 °C. After the medium was removed, the formazan crystals were solubilized by addition of 100 μL DMSO to each well, and absorbance was determined using an Infinitive M1000 plate reader (Tecan, Mannedorf, Switzerland) at a wavelength of 550 nm with background subtraction at 630 nm. Every concentration was repeated in three wells, and IC50 values were calculated from MTT results and defined as the drug concentrations that reduced absorbance to 50% of the control values.
Background: Tetrazolium assays rely on reduction of a dye to a coloured formazan, in cell work by metabolically active cells.

Assay [3] deals with MT-2. Put plainly: MTT assay, MT-2 cells. The format is cell-based, human. Particulars: leukemic cells.
Description: as §1, §2, §3

In assay [4] the test system is HeLa. Put plainly: MTT assay, HeLa cells. The format is cell-based, human. The settings on record: 96 h exposure, cervical cancer.
Description: as §1, §2, §3

Assay [5] deals with HL-60. Put plainly: MTT assay, HL-60 cells. In kind it is cell-based, human. Particulars: leukemic cells.
Description: as §1, §2, §3

Assay [6] relates to MCF-7. Put plainly: MTT assay, MCF-7 cells. In kind it is cell-based, human. Particulars: breast cancer.
Description: as §1, §2, §3

In assay [7] the test system is plasmid DNA (pUC19 DNA). Briefly: DNA cleavage assay with plasmid DNA. Particulars: 1 μM concentration, 37 °C, 2 h, with and without iron (II), H2O2, ascorbic acid. As for the experimental part:
We then tested DNA cleavage as a possible molecular mechanism for cytotoxicity of the tested compounds using plasmid DNA (pUC19 DNA) witH- and without iron (II), H2O2, and ascorbic acid complex (Figure 3). The DNA cleavage reaction was carried out by incubating the reaction mixture at 37 °C for 2 h, and electrophoresis was performed. After electrophoresis, the DNA was stained with ethidium bromide, and the bands were visualized by exposure to ultraviolet radiation and recorded using an electronic camera. […] Furthermore, these compounds may activate oxygen in the cytoplasm. This may explain their high cellular cytotoxic activity owing to a dual effect combining SIRT2 inhibition and DNA cleavage.
The DNA cleavage assays were performed as described previously. Intensity of the bands was quantitated using ImageJ software (NIH, Bethesda, MD, USA).
Figure 3 The inhibitory effects of selected compounds on DNA cleavage in the presence and absence of FeSO4, H2O2, and ascorbic acid. (A) Form I (supercoil), form II (single strand break), and form III (double strand break) bands after electrophoresis. The Form I band is the lower and the Form II band is the upper portion. The pUC19 enzyme cut (by EcoR I) generates form III with mid mobility (the second lane from the left). (B) Relative intensity of form I and form II bands.

Assay [8] deals with NCI 60 tumor cell line. Details: method as in doi:10.1002/ddr.430340203. Particulars: NCI 60 tumor cell line screen; cited from earlier work.
Where [9] appears, read: Homo sapiens, K562, 96 h exposure.
Setting [10] is: Homo sapiens, MT2, 96 h exposure.
[11] abbreviates: Homo sapiens, HL-60, 96 h exposure.
[12] abbreviates: Homo sapiens, MCF7, 96 h exposure.

SMILES strings stand for the structures. Structures can show the parent of a compound that is named as a salt.

On to `COC(=O)C(N)CSC(c1ccccc1)(c1ccccc1)c1ccccc1` (stereo in doubt) [Compound 1, S-Trityl-L-Cysteine Methyl Ester Hydrochloride], for which, in assay [1], the “SIRT2 inhibition activity (in words)” value is “inactive” and the IC50 is over 100 µM.

Take `COC(=O)[C@H](CSC(c1ccccc1)(c1ccccc1)c1ccccc1)NCc1cccc(Br)n1` [STC1, Methyl N-((6-bromopyridin-2-yl)methyl)-S-trityl-L-cysteinate]: in assay [1], the IC50 was over 100 µM.

As for `CCN(CC)c1ccc(CN[C@@H](CSC(c2ccccc2)(c2ccccc2)c2ccccc2)C(=O)OC)cc1` [STC2, Methyl N-(4-(diethylamino)benzyl)-S-trityl-L-cysteinate], the IC50 in assay [1] was over 100 µM.

On to `COC(=O)[C@H](CSC(c1ccccc1)(c1ccccc1)c1ccccc1)NCc1ccc(N(C)C)cc1` [STC3, Methyl N-(4-(dimethylamino)benzyl)-S-trityl-L-cysteinate], for which the IC50 in assay [1] was over 100 µM.

As to `COC(=O)[C@H](CSC(c1ccccc1)(c1ccccc1)c1ccccc1)NCc1cc(N(C)C)ccn1` [STC4, Methyl N-((4-(dimethylamino)pyridin-2-yl)methyl)-S-trityl-L-cysteinate], the IC50 in assay [2] (setting [9]) worked out at 2.17 ± 0.25 µM; in assay [1], 10.8 ± 1.9 µM; in assay [3] (setting [10]), 3.15 ± 0.13 µM; in assay [4] (Homo sapiens, HeLa), 1.56 ± 0.17 µM; in assay [5] (setting [11]), 0.45 ± 0.05 µM; in assay [6] (setting [12]), 3.16 ± 0.26 µM. Also, the “fold decrease in SIRT2 inhibition activity compared with TH-3” value in assay [1] (vs TH-3) is given as 10 fold.

Take `COC(=O)[C@H](CSC(c1ccccc1)(c1ccccc1)c1ccccc1)NCc1ccc(N(C)C)cc1Cl` [STC5, Methyl N-(2-chloro-4-(dimethylamino)benzyl)-S-trityl-L-cysteinate]: the IC50 in assay [1] is over 100 µM.

As for `COC(=O)[C@H](CSC(c1ccccc1)(c1ccccc1)c1ccccc1)NCc1ccc(N(C)C)cc1OC` [STC6, Methyl N-(2-methoxy-4-(dimethylamino)benzyl)-S-trityl-L-cysteinate], the IC50 in assay [1] is over 100 µM.

As to `COC(=O)[C@H](CSC(c1ccccc1)(c1ccccc1)c1ccccc1)NCc1cnc2ccccc2c1` [STC7, Methyl N-(quinolin-3-ylmethyl)-S-trityl-L-cysteinate], in assay [1], the IC50 is over 100 µM.

Take `COC(=O)[C@H](CSC(c1ccccc1)(c1ccccc1)c1ccccc1)NCc1ccccn1` [STC8, Methyl N-(pyridin-2-ylmethyl)-S-trityl-L-cysteinate]: in assay [1], the “SIRT2 inhibition activity (in words)” value is given as “devoid of SIRT2 inhibition activity” and the IC50 is over 100 µM.

As for `CCN(CC)c1ccnc(CN[C@@H](CSC(c2ccccc2)(c2ccccc2)c2ccccc2)C(=O)OC)c1` [STC9, Methyl N-((4-(diethylamino)pyridin-2-yl)methyl)-S-trityl-L-cysteinate], the IC50 is 2.53 ± 0.31 µM in assay [2] (setting [9]); 17.2 ± 1.2 µM in assay [1]; 2.55 ± 0.28 µM in assay [3] (setting [10]); 2.72 ± 0.19 µM in assay [4] (Homo sapiens, HeLa); 1.19 ± 0.09 µM in assay [5] (setting [11]); 3.32 ± 0.41 µM in assay [6] (setting [12]). In assay [7], the DNA cleavage effect result is on record as “strongest DNA cleavage effect”.

Take `COC(=O)[C@H](CSC(c1ccccc1)(c1ccccc1)c1ccccc1)NC(=O)c1cc(N(C)C)ccn1` [STC10, Methyl N-(4-(dimethylamino)picolinoyl)-S-trityl-L-cysteinate]: in assay [1], the “SIRT2 inhibition activity (in words)” value is on record as “no activity” and the IC50 was over 100 µM.

As for `CN(C)c1ccnc(CN[C@H](CSC(c2ccccc2)(c2ccccc2)c2ccccc2)C(=O)NN)c1` [STC11, (S)-2-(((4-(dimethylamino)pyridin-2-yl)methyl)amino)-3-(tritylthio)propanehydrazide], the IC50 in assay [2] (setting [9]) came to 15 ± 1.17 µM; in assay [1] it was 9.5 ± 1.2 µM; in assay [3] (setting [10]), 16.8 ± 1.04 µM; in assay [4] (Homo sapiens, HeLa), 7.95 ± 0.81 µM; in assay [5] (setting [11]) it was 12.8 ± 0.95 µM; in assay [6] (setting [12]), 10 ± 1.12 µM.

Consider `N[C@@H](CSC(c1ccccc1)(c1ccccc1)c1ccccc1)C(=O)O` [STLC, S-trityl-L-cysteine], for which, in assay [8], the “half maximal tumor growth inhibition concentration” value is reported as 1.3 µM.

Turning to `Cc1cc(C)nc(SCC(=O)Nc2ncc(Cc3cccc4ccccc34)s2)n1` [SirReal2, reference compound], the IC50 in assay [2] (96 h exposure) turned out to be 13.7 ± 0.44 µM; in assay [3] (96 h exposure), 17.9 ± 1.52 µM; in assay [4], 10.4 ± 0.94 µM; in assay [5] (96 h exposure), 90.6 ± 8.77 µM; in assay [6] (96 h exposure), 17.1 ± 2.15 µM.

On to `CCN(CC)c1ccnc(CN[C@H](Cc2cn(C(c3ccccc3)(c3ccccc3)c3ccccc3)cn2)C(=O)OC)c1` [TH-3, reference compound], for which the IC50 in assay [2] (setting [9]) stood at 0.3 ± 0.02 µM; in assay [1], 1.3 ± 0.2 µM; in assay [3] (setting [10]) it was 0.17 ± 0.02 µM; in assay [4] (Homo sapiens, HeLa), 0.37 ± 0.04 µM; in assay [5] (setting [11]) it was 0.28 ± 0.04 µM; in assay [6] (setting [12]), 0.71 ± 0.08 µM.

For orientation: IC50 means the concentration needed to halve the response being measured.
